The text below walks through data of patent US11407744B2, “Compound and pharmaceutical composition comprising same” (AUTOPHAGYSCIENCES INC., priority 2018, dated 2022).

The structures appear in SMILES notation.

The test system of the first assay is LC3-II production in Hep3B cells. Nature of the assay: Autophagy activation: degree of LC3-II production in Hep3B cells (Western blot band density). Particulars: 12 hours. It is filed as cell-based, human. The protocol:
The degree of autophagy activation of each compound was evaluated by measuring the degree of LC3-II production in Hep3B cells.
Specifically, Hep3B human hepatocytes were cultured in DMEM medium at 37° C. under 5% CO2 atmosphere. The respective cells were dispensed into 6-well plates at a density of 5×10^5 cells/well. These cells were treated with DMSO, the compound prepared in Examples described above, and the compound of Comparative Example, respectively, and then treated in DMEM medium at 37° C. under 5% CO2 atmosphere for 12 hours to induce autophagy. Subsequently, Hep3B cells were lysed with an extraction buffer containing protease inhibitor cocktail (PBS solution containing 0.5% Triton X-100, 1 mM Na3VO4, etc.), and then fragmentation of DNA was performed by sonication. The amount of protein was measured with bovine serum albumin as a protein standard using SMART™ BCA Protein Assay kit from iNtRON Biotechnology. After electrophoresis of 10˜50 μg of total cell protein in 8˜12% (w/v) polyacrylamide gel containing 0.1% SDS, the proteins present in a gel were transferred to PVDF membrane by an electroblotting technique. Then, in order to block non-specific binding, the PVDF membrane was placed in a TBS-tween (tris-buffered saline-tween, Sigma Co.) solution containing 5% non-fat dry milk and reacted at room temperature for 1 hour. The filter was placed in a TBS-tween solution containing a specific antibody against LC3 protein (Cell Signaling), allowed to stand at 4° C. for 12 hours, and then labeled with a secondary antibody labeled with HRP (Horseradish Peroxidase, Sigma Co., Cat No. P0889). Then, bands were measured using ECL (Enhanced Chemiluminescence, Thermo Scientific, Cat No. 34080).
The induction of autophagy can be confirmed by an increase in specific LC3-II molecules. LC3 precursors are usually scattered in the cytoplasm, proteolytically cleaved, and present in the form of LC3-I. When autophagy is activated, the C-terminal glycine is modified to form LC3-II, which migrates to autophagosome and is distributed in puncta form.
The amount of LC3-II increased by the compound treatment was quantified by measuring the band density, and then compared with the amount of LC3-II increased by the treatment of the compound of Comparative Example, and the comparison values are shown in Table 1.
On the technique in general: In western blotting, separated proteins are transferred to a membrane and probed.
Regarding `COc1ccc(-c2ccc(C(=O)NC(C)C)s2)cc1OC` [Comparative Example, 5-(3,4-dimethoxyphenyl)-N-isopropylthiophene-2-carboxamide, reference compound], the “increase in LC3-II (induction of autophagy), in words” value is listed as “Hep3B cells induce autophagy”.

Staying with this assay, now noted: amount of LC3-II increased by compound treatment relative to that of the Comparative Example (=1), 12 hours.
Compound `CC(C)NC(=O)c1ccc(-c2cncc3ccccc23)s1` [Example 15, N-isopropyl-5-(isoquinolin-4-yl)thiophene-2-carboxamide] gave an Autophagy-inducing capacity of 1.50.

In the case of `Cc1cccc(-c2ccc(C(=O)NC(C)C)s2)c1` [Example 30, N-isopropyl-5-m-tolylthiophene-2-carboxamide], the Autophagy-inducing capacity amounted to 1.02.

`CCNC(=O)c1cccc(-c2ccc(C(=O)NC(C)C)o2)c1` [Example 92, 5-(3-(ethylcarbamoyl)phenyl)-N-isopropylfuran-2-carboxamide] gave an Autophagy-inducing capacity of 1.41.

In turn, `CC(C)NC(=O)c1ccc(-c2cncc3ccccc23)o1` [Example 65, N-isopropyl-5-(isoquinolin-4-yl)furan-2-carboxamide] had an Autophagy-inducing capacity of 1.66.

The compound `CC(C)NC(=O)c1ccc(-c2ccc(O)cc2)s1` [Example 5, 5-(4-hydroxyphenyl)-N-isopropylthiophene-2-carboxamide] yielded an Autophagy-inducing capacity of 1.80.

In turn, `Cc1cc(C)cc(-c2ccc(C(=O)NC(C)C)s2)c1` [Example 28, 5-(3,5-dimethylphenyl)-N-isopropylthiophene-2-carboxamide] had an Autophagy-inducing capacity of 1.60.

In turn, `CCNC(=O)c1ccc(-c2ccc(C(=O)NC(C)C)o2)cc1` [Example 93, 5-(4-(ethylcarbamoyl)phenyl)-N-isopropylfuran-2-carboxamide] displayed an Autophagy-inducing capacity of 1.19.

For `CC(C)NC(=O)c1ccc(-c2cccnc2)s1` [Example 7, N-isopropyl-5-(pyridin-3-yl)thiophene-2-carboxamide], the Autophagy-inducing capacity amounted to 1.24.

In turn, `CC(C)OC(=O)c1ccc(-c2cccnc2)s1` [Example 72, isopropyl 5-(pyridin-3-yl)thiophene-2-carboxylate] had an Autophagy-inducing capacity of 1.08.

As to `CC(C)NC(=O)c1ccc(-c2cccc(O)c2)s1` [Example 4, 5-(3-hydroxyphenyl)-N-isopropylthiophene-2-carboxamide], the Autophagy-inducing capacity is given as 1.16.

In turn, `Cc1cc(C)cc(-c2ccc(C(=O)Nc3ccccc3)s2)c1` [Example 48, 5-(3,5-dimethylphenyl)-N-phenylthiophene-2-carboxamide] displayed an Autophagy-inducing capacity of 1.46.

In the case of `CC(C)NC(=O)c1ccc(-c2cnc3ccccc3c2)s1` [Example 17, N-isopropyl-5-(quinolin-3-yl)thiophene-2-carboxamide], the Autophagy-inducing capacity is listed as 1.99.

Compound `CC(C)NC(=O)c1ccc(-c2ccc3[nH]ccc3c2)s1` [Example 11, 5-(1H-indol-5-yl)-N-isopropylthiophene-2-carboxamide] came in with an Autophagy-inducing capacity of 2.13.

Turning to `Cc1ccc(-c2ccc(C(=O)NC(C)C)s2)c(C)c1` [Example 31, 5-(2,4-dimethylphenyl)-N-isopropylthiophene-2-carboxamide], the Autophagy-inducing capacity was 1.49.

As for `O=C(Nc1cccnc1)c1ccc(-c2cccc(O)c2)o1` [Example 91, 5-(3-hydroxyphenyl)-N-(pyridin-3-yl)furan-2-carboxamide], the Autophagy-inducing capacity came out at 1.33.

Take `CC(C)NC(=O)c1ccc(-c2ccc(C(=O)NC(C)C)o2)cc1` [Example 94, N-isopropyl-5-(4-(isopropylcarbamoyl)phenyl)furan-2-carboxamide]: the Autophagy-inducing capacity came to 1.17.

Take `O=C(Nc1cccnc1)c1ccc(-c2cccnc2)o1` [Example 58, N,5-di(pyridin-3-yl)furan-2-carboxamide]: the Autophagy-inducing capacity is given as 1.10.

In the case of `CC(C)NC(=O)c1ccc(-c2ccc(F)c(F)c2)s1` [Example 27, 5-(3,4-difluorophenyl)-N-isopropylthiophene-2-carboxamide], the Autophagy-inducing capacity was found to be 1.01.

On to `COc1cc(-c2ccc(C(=O)NC(C)C)s2)cnc1N` [Example 14, 5-(6-amino-5-methoxypyridin-3-yl)-N-isopropylthiophene-2-carboxamide], for which the Autophagy-inducing capacity was 1.13.

The compound `Cc1cc(C)cc(-c2ccc(C(=O)NC(C)C)o2)c1` [Example 85, 5-(3,5-dimethylphenyl)-N-isopropylfuran-2-carboxamide] returned an Autophagy-inducing capacity of 1.09.

In turn, `O=C(Nc1ccccc1)c1ccc(-c2cccnc2)s1` [Example 49, N-phenyl-5-(pyridin-3-yl)thiophene-2-carboxamide] had an Autophagy-inducing capacity of 1.51.

As to `COc1ccc(-c2ccc(C(=O)NC(C)C)s2)cc1OC` [Comparative Example, 5-(3,4-dimethoxyphenyl)-N-isopropylthiophene-2-carboxamide, reference compound], the Autophagy-inducing capacity is recorded as 1.00.

Compound `CCOC(=O)c1ccc(-c2ccc(C#N)cc2)o1` [Example 89, ethyl 5-(4-cyanophenyl)furan-2-carboxylate] came in with an Autophagy-inducing capacity of 1.64.

Compound `COc1cc(-c2ccc(C(=O)NC(C)C)s2)ccc1O` [Example 1, 5-(4-hydroxy-3-methoxyphenyl)-N-isopropylthiophene-2-carboxamide] came in with an Autophagy-inducing capacity of 1.48.

In turn, `COc1ccc(-c2ccc(C(=O)NC(C)C)s2)cc1O` [Example 2, 5-(3-hydroxy-4-methoxyphenyl)-N-isopropylthiophene-2-carboxamide] gave an Autophagy-inducing capacity of 1.38.

`CC(C)NC(=O)c1ccc(-c2cccc(N)c2)s1` [Example 18, 5-(3-aminophenyl)-N-isopropylthiophene-2-carboxamide] registered an Autophagy-inducing capacity of 1.13.

Take `COc1ccc(-c2ccc(C(=O)NC(C)C)s2)c(OC)n1` [Example 12, 5-(2,6-dimethoxypyridin-3-yl)-N-isopropylthiophene-2-carboxamide]: the Autophagy-inducing capacity is given as 1.19.

For the compound `CCOC(=O)c1ccc(-c2cnc3ccccc3c2)o1` [Example 88, ethyl 5-(quinolin-3-yl)furan-2-carboxylate], the Autophagy-inducing capacity was determined as 1.02.
